Reference: patent publication EP4722207A1, “OXOISOINDOLINYL-SUBSTITUTED TETRAHYDROPYRIMIDINEDIONE DERIVATIVE AND USE THEREOF” (Gluetacs Therapeutics (Shanghai) Co., Ltd., priority 2023, dated 2024)

What was measured:
H292 = assay: Cell viability assay (CellTiter-Meiluncell Luminescent), tumor cell proliferation, H292; settings: Homo sapiens, NCI-H292, 96 h; for inhibition at 0.01 µM: read-out: Inhibition Rate at 10 nM (%); for inhibition at 0.5 µM: read-out: Inhibition Rate at 500 nM (%)
CK1α = target: T1, CK1α (Homo sapiens, UniProt P48729+Q96SW2); assay: Western-blot assay, substrate protein degradation in hPBMCs: CK1α; type: cell-based; settings: 24 hours of compound treatment, 50 nM and 500 nM
T1 construct: effects of the compounds of the present disclosure on the expression of target proteins in cells; endogenous in cells; host or cells: human PBMCs (hPBMCs)

IKZF3 = target: T2, IKZF3 (Homo sapiens, UniProt Q96SW2+Q9UKT9); assay: Western-blot assay, substrate protein degradation in hPBMCs: IKZF3; type: cell-based; settings: 24 hours of compound treatment, 50 nM and 500 nM
T2 construct: effects of the compounds of the present disclosure on the expression of target proteins in cells; endogenous in cells; host or cells: human PBMCs (hPBMCs)

IKZF1 = target: T3, IKZF1 (Homo sapiens, UniProt Q13422+Q96SW2); assay: Western-blot assay, substrate protein degradation in hPBMCs: IKZF1; type: cell-based; settings: 24 hours of compound treatment, 50 nM and 500 nM
T3 construct: effects of the compounds of the present disclosure on the expression of target proteins in cells; endogenous in cells; host or cells: human PBMCs (hPBMCs)

WEE1 = target: T4, WEE1 (Homo sapiens, UniProt P30291+Q96SW2); assay: Western-blot assay, substrate protein degradation in hPBMCs: WEE1; type: cell-based; settings: 24 hours of compound treatment, 50 nM and 500 nM
T4 construct: effects of the compounds of the present disclosure on the expression of target proteins in cells; endogenous in cells; host or cells: human PBMCs (hPBMCs)

IKZF2 = target: T5, IKZF2 (Homo sapiens, UniProt Q96SW2+Q9UKS7); assay: Western-blot assay, substrate protein degradation in hPBMCs: IKZF2; type: cell-based; settings: 24 hours of compound treatment, 50 nM and 500 nM
T5 construct: effects of the compounds of the present disclosure on the expression of target proteins in cells; endogenous in cells; host or cells: human PBMCs (hPBMCs)

GSPT1 = target: T6, GSPT1 (Homo sapiens, UniProt P15170+Q96SW2); assay: Western-blot assay, substrate protein degradation in hPBMCs: GSPT1; type: cell-based; settings: 24 hours of compound treatment, 50 nM and 500 nM
T6 construct: effects of the compounds of the present disclosure on the expression of target proteins in cells; endogenous in cells; host or cells: human PBMCs (hPBMCs)
T6 sequence (P15170 whole entry): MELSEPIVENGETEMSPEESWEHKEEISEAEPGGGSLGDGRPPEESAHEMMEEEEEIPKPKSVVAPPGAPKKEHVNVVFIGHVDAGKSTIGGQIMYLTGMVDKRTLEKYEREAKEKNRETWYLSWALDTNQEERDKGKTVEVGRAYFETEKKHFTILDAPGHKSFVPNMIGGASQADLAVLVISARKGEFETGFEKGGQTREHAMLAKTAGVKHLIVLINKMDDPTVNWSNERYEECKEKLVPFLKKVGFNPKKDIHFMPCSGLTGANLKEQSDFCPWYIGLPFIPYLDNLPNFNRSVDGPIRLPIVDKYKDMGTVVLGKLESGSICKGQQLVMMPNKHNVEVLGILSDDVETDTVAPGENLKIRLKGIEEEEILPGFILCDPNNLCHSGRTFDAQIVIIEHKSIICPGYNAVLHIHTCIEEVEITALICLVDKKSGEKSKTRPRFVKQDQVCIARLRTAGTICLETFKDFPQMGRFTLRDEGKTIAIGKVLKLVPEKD
T6 sequence (Q96SW2 whole entry): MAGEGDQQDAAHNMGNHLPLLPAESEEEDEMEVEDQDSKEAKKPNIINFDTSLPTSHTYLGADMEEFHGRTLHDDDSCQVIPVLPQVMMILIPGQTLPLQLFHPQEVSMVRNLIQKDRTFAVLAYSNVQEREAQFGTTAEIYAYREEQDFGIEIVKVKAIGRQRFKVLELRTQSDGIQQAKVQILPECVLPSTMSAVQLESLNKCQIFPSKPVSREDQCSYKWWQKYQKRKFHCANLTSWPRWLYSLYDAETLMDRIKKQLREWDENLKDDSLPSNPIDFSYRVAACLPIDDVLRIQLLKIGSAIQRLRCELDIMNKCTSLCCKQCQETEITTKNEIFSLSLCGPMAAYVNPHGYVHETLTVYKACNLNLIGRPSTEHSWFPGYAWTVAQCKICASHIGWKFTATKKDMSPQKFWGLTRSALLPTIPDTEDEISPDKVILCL
T6 sequence (Q16531 whole entry partner): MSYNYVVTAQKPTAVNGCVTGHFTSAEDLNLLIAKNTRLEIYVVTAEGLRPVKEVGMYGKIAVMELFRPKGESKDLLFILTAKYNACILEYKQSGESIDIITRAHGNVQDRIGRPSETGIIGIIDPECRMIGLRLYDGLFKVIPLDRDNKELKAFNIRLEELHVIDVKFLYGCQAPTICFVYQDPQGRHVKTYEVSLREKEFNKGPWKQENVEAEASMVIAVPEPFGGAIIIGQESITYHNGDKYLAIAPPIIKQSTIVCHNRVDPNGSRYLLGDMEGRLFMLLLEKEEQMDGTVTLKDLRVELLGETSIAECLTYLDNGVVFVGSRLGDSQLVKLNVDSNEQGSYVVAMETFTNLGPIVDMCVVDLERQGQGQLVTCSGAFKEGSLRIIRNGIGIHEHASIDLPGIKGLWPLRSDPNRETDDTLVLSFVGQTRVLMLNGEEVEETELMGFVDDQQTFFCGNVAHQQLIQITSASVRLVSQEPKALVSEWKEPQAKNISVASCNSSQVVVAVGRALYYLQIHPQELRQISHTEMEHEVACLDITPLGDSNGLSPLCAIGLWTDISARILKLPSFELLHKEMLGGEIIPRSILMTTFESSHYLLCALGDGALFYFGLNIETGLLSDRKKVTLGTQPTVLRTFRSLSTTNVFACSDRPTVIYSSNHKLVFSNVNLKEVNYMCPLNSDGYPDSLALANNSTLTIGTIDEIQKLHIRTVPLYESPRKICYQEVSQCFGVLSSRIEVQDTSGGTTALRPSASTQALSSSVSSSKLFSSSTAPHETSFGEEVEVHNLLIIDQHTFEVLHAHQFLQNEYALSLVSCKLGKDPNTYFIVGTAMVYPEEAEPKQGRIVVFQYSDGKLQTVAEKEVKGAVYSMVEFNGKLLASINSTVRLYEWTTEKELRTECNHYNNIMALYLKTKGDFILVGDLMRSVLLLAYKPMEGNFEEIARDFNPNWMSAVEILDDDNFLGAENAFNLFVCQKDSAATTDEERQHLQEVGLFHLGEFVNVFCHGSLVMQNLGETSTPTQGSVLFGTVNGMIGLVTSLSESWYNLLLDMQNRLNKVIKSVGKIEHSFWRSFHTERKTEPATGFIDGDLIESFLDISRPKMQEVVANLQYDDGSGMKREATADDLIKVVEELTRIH

T3 sequence (Q13422 whole entry): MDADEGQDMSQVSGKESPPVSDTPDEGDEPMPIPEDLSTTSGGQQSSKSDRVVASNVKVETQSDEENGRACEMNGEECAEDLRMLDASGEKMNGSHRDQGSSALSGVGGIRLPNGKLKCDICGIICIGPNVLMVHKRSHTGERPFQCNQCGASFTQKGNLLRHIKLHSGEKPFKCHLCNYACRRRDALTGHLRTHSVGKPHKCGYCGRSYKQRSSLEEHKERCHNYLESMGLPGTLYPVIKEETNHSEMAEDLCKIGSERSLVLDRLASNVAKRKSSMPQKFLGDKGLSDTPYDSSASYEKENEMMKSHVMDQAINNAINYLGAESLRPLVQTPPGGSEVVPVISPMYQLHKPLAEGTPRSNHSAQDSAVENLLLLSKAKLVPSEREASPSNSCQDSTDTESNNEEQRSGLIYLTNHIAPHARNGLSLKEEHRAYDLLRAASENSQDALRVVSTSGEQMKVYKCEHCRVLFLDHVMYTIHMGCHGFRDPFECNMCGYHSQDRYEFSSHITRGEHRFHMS
T3 sequence (Q96SW2 whole entry): as the sequence (Q96SW2 whole entry) above
T3 sequence (Q16531 whole entry partner): as the sequence (Q16531 whole entry partner) above
T4 sequence (P30291 whole entry): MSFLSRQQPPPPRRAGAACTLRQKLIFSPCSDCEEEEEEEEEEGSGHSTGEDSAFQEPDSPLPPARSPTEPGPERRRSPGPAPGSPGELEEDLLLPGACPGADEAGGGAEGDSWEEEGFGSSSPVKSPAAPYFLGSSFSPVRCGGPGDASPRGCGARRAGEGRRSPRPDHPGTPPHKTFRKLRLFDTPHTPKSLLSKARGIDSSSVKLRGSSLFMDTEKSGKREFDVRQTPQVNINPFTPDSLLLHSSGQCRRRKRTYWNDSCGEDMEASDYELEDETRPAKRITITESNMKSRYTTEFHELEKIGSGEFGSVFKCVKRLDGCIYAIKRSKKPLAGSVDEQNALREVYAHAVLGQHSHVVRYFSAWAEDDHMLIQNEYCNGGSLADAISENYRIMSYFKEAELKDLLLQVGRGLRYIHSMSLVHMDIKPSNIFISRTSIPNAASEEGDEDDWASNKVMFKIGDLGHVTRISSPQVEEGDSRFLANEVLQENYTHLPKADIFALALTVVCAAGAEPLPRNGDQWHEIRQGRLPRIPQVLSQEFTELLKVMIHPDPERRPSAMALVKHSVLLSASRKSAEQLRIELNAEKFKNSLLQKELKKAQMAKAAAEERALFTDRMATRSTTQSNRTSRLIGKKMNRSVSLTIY
T4 sequence (Q96SW2 whole entry): as the sequence (Q96SW2 whole entry) above
T4 sequence (Q16531 whole entry partner): as the sequence (Q16531 whole entry partner) above
T1 sequence (P48729 whole entry): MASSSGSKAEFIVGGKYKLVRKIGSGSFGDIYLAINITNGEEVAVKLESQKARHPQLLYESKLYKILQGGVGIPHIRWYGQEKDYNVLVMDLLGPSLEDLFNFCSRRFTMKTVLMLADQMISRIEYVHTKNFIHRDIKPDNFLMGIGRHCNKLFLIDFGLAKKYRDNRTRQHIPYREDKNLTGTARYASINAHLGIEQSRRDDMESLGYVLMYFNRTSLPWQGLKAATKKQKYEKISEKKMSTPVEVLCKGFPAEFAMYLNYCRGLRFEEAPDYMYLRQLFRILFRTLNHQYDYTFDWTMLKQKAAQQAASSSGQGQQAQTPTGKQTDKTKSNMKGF
T1 sequence (Q96SW2 whole entry): as the sequence (Q96SW2 whole entry) above
T1 sequence (Q16531 whole entry partner): as the sequence (Q16531 whole entry partner) above
T5 sequence (Q9UKS7 whole entry): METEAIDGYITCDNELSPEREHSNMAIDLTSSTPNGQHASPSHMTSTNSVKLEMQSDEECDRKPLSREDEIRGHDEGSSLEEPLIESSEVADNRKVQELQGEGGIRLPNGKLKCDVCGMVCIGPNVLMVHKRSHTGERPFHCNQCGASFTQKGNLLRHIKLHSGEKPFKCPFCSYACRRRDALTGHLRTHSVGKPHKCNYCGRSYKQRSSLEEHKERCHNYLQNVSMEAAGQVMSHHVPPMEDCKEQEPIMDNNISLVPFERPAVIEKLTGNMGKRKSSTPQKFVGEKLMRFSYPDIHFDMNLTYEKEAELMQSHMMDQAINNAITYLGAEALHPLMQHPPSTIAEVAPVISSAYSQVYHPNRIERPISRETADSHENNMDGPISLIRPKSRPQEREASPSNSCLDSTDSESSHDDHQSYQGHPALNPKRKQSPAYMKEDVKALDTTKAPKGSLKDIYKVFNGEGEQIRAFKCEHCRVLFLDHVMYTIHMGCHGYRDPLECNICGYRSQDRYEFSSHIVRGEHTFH
T5 sequence (Q96SW2 whole entry): as the sequence (Q96SW2 whole entry) above
T5 sequence (Q16531 whole entry partner): as the sequence (Q16531 whole entry partner) above

Structure (SMILES) | inhibition at 0.01 µM (H292) [%] | inhibition at 0.5 µM (H292) [%] | substrate protein remaining % CK1α (CK1α) | substrate protein remaining % IKZF3 (IKZF3) | substrate protein remaining % IKZF1 (IKZF1) | substrate protein remaining % WEE1 (WEE1) | substrate protein remaining % IKZF2 (IKZF2) | substrate protein remaining % GSPT1 (GSPT1)
O=C1CCN(N2Cc3cc(CN4CC(n5cnc6cc(F)ccc65)C4)ccc3C2=O)C(=O)N1 [GT-07723, 1-(5-((3-(5-fluoro-1H-benzo[d]imidazol-1-yl)azetidin-1-yl)methyl)-1-oxoisoindolin-2-yl)dihydropyrimidine-2,4(1H,3H)-dione] | 15 to 20 | 5 to 10 | – | – | – | – | – | –
Cc1nc(N2CCN(Cc3ccc4c(c3)C(=O)N(N3CCC(=O)NC3=O)C4=O)CC2)c2ccsc2n1 [GT-08100, 2-(2,4-dioxotetrahydropyrimidin-1(2H)-yl)-5-((4-(2-methylthieno[2,3-d]pyrimidin-4-yl)piperazin-1-yl)methyl)isoindoline-1,3-dione] | 5 to 10 | 10 to 15 | – | – | – | – | – | –
O=C1CCN(N2C(=O)c3ccc(CN4CCN(c5ncnc6sc7c(c56)CCC7)CC4)cc3C2=O)C(=O)N1 [GT-08103, 5-((4-(6,7-dihydro-5H-cyclopenta[4,5]thieno[2,3-d]pyrimidin-4-yl)piperazin-1-yl)methyl)-2-(2,4-dioxotetrahydropyrimidin-1(2H)-yl)isoindoline-1,3-dione] | 15 to 20 | 15 to 20 | B (80%< substrate protein remaining %≤ 100%) | A (0% ≤ substrate protein remaining % ≤ 80%) | B (80%< substrate protein remaining %≤ 100%) | B (80%< substrate protein remaining %≤ 100%) | A (0% ≤ substrate protein remaining % ≤ 80%) | B (80%< substrate protein remaining %≤ 100%)
O=C1CCN(N2C(=O)c3ccc(CN4CCN(c5ncc6ccsc6n5)CC4)cc3C2=O)C(=O)N1 [GT-08105, 2-(2,4-dioxotetrahydropyrimidin-1(2H)-yl)-5-((4-(thieno[2,3-d]pyrimidin-2-yl)piperazin-1-yl)methyl)isoindoline-1,3-dione] | 10 to 15 | 10 to 15 | B (80%< substrate protein remaining %≤ 100%) | A (0% ≤ substrate protein remaining % ≤ 80%) | B (80%< substrate protein remaining %≤ 100%) | B (80%< substrate protein remaining %≤ 100%) | A (0% ≤ substrate protein remaining % ≤ 80%) | A (0% ≤ substrate protein remaining % ≤ 80%)
CC1(C)[C@@H]2CC[C@]1(CS(=O)(=O)NCc1ccc3c(c1)CN(N1CCC(=O)NC1=O)C3=O)C(=O)C2 [GT-08133, 1-((1R,4R)-7,7-dimethyl-2-oxobicyclo[2.2.1]heptan-1-yl)-N-((2-(2,4-dioxotetrahydropyrimidin-1(2H)-yl)-1-oxoisoindolin-5-yl)methyl)methanesulfonamide] | 15 to 20 | 20 to 40 | – | – | – | – | – | –
O=C1CCN(N2C(=O)c3ccc(CN4CCC(c5ncnc6sc7c(c56)CCC7)CC4)cc3C2=O)C(=O)N1 [GT-08425, 5-((4-(6,7-dihydro-5H-cyclopenta[4,5]thieno[2,3-d]pyrimidin-4-yl)piperidin-1-yl)methyl)-2-(2,4-dioxotetrahydropyrimidin-1(2H)-yl)isoindoline-1,3-dione] | 15 to 20 | 5 to 10 | – | – | – | – | – | –
Cc1nc(C2CCN(Cc3ccc4c(c3)C(=O)N(N3CCC(=O)NC3=O)C4=O)CC2)c2c3c(sc2n1)CCC3 [GT-08426, 2-(2,4-dioxotetrahydropyrimidin-1(2H)-yl)-5-((4-(2-methyl-6,7-dihydro-5H-cyclopenta[4,5]thieno[2,3-d]pyrimidin-4-yl)piperidin-1-yl)methyl)isoindoline-1,3-dione] | 20 to 40 | 20 to 40 | – | – | – | – | – | –
CC(C)c1cc2c(C3=CCN(Cc4ccc5c(c4)C(=O)N(N4CCC(=O)NC4=O)C5=O)CC3)ncnc2s1 [GT-08429, 2-(2,4-dioxotetrahydropyrimidin-1(2H)-yl)-5-((4-(6-isopropylthieno[2,3-d]pyrimidin-4-yl)-3,6-dihydropyridin-1(2H)-yl)methyl)isoindoline-1,3-dione] | 20 to 40 | 20 to 40 | – | – | – | – | – | –
O=C1CCN(N2C(=O)c3ccc(CN4CC=C(c5ncnc6scc(-c7ccccc7)c56)CC4)cc3C2=O)C(=O)N1 [GT-08431, 2-(2,4-dioxotetrahydropyrimidin-1(2H)-yl)-5-((4-(5-phenylthieno[2,3-d]pyrimidin-4-yl)-3,6-dihydropyridin-1(2H)-yl)methyl)isoindoline-1,3-dione] | – | – | B (80%< substrate protein remaining %≤ 100%) | B (80%< substrate protein remaining %≤ 100%) | B (80%< substrate protein remaining %≤ 100%) | A (0% ≤ substrate protein remaining % ≤ 80%) | A (0% ≤ substrate protein remaining % ≤ 80%) | B (80%< substrate protein remaining %≤ 100%)
Cc1nc(C2=CCN(Cc3ccc4c(c3)C(=O)N(N3CCC(=O)NC3=O)C4=O)CC2)c2c3c(sc2n1)CCC3 [GT-08435, 2-(2,4-dioxotetrahydropyrimidin-1(2H)-yl)-5-((4-(2-methyl-6,7-dihydro-5H-cyclopenta[4,5]thieno[2,3-d]pyrimidin-4-yl)-3,6-dihydropyridin-1(2H)-yl)methyl)isoindoline-1,3-dione] | – | – | B (80%< substrate protein remaining %≤ 100%) | A (0% ≤ substrate protein remaining % ≤ 80%) | A (0% ≤ substrate protein remaining % ≤ 80%) | A (0% ≤ substrate protein remaining % ≤ 80%) | B (80%< substrate protein remaining %≤ 100%) | A (0% ≤ substrate protein remaining % ≤ 80%)
O=C1CCN(N2Cc3cc(CN4CCN(c5nc(Cl)nc6ccsc56)CC4)ccc3C2=O)C(=O)N1 [GT-08444, 1-(5-((4-(2-chlorothieno[3,2-d]pyrimidin-4-yl)piperazin-1-yl)methyl)-1-oxoisoindolin-2-yl)dihydropyrimidine-2,4(1H,3H)-dione] | – | – | B (80%< substrate protein remaining %≤ 100%) | B (80%< substrate protein remaining %≤ 100%) | B (80%< substrate protein remaining %≤ 100%) | A (0% ≤ substrate protein remaining % ≤ 80%) | B (80%< substrate protein remaining %≤ 100%) | B (80%< substrate protein remaining %≤ 100%)
O=C1CCN(N2C(=O)c3ccc(CN4CCN(c5nc(N6CCOCC6)nc6c5SCC6)CC4)cc3C2=O)C(=O)N1 [GT-08450, 2-(2,4-dioxotetrahydropyrimidin-1(2H)-yl)-5-((4-(2-morpholino-6,7-dihydrothieno[3,2-d]pyrimidin-4-yl)piperazin-1-yl)methyl)isoindoline-1,3-dione] | – | – | B (80%< substrate protein remaining %≤ 100%) | B (80%< substrate protein remaining %≤ 100%) | B (80%< substrate protein remaining %≤ 100%) | B (80%< substrate protein remaining %≤ 100%) | B (80%< substrate protein remaining %≤ 100%) | A (0% ≤ substrate protein remaining % ≤ 80%)
O=C1CCN(N2C(=O)c3ccc(CN4CCN(c5nc(N6CCOCC6)c6sccc6n5)CC4)cc3C2=O)C(=O)N1 [GT-08456, 2-(2,4-dioxotetrahydropyrimidin-1(2H)-yl)-5-((4-(4-morpholinothieno[3,2-d]pyrimidin-2-yl)piperazin-1-yl)methyl)isoindoline-1,3-dione] | 5 to 10 | 20 to 40 | – | – | – | – | – | –
O=C1CCN(N2Cc3cc(CN4CCN(c5nc(N6CCNCC6)c6sccc6n5)CC4)ccc3C2=O)C(=O)N1 [GT-08949, 1-(1-oxo-5-((4-(4-(piperazin-1-yl)thieno[3,2-d]pyrimidin-2-yl)piperazin-1-yl)methyl)isoindolin-2-yl)dihydropyrimidine-2,4(1H,3H)-dione] | – | – | B (80%< substrate protein remaining %≤ 100%) | B (80%< substrate protein remaining %≤ 100%) | B (80%< substrate protein remaining %≤ 100%) | B (80%< substrate protein remaining %≤ 100%) | B (80%< substrate protein remaining %≤ 100%) | A (0% ≤ substrate protein remaining % ≤ 80%)
